Values after ≈ are worked out from the molar mass of the structure shown. Values joined by “and” are separate entries in the source; they are usually repeats but may differ in a detail not shown here. Equal values may be shown once.
Columns and labels:
ecFoID [1] = molecular target: T1, ecFoID (Escherichia coli, UniProt P24186); assay: FoID dehydrogenase (DH) enzyme assay; assay type: biochemical, E. coli; details: for Ki: carolacton inhibition on DH activity, ecFoID
T1 construct: His-tag (vector pHis-TEV); made in house; host or cells: E. coli BL21 (DE3)
Experimental: (§1) (6R,S)-5,10-Methylene-5,6,7,8-tetrahydrofolic acid ((6R,S)-5,10-CH2-THF), calcium salt and (6R,S)-5,10-Methenyl-5,6,7,8-tetrahydrofolic acid ((6R,S)-5,10-CH=THF) chloride were purchased from Schircks Laboratories (Bauma, Switzerland) and were used as substrates for FoID dehydrogenase and cyclohydrolase enzyme assays, respectively. Only the R-isomer, which accounts for 50% of (6R,S)-5,10-CH2-THF and (6R,S)-5,10-CH=THF, respectively, is used by the enzyme. (6R,S)-5,10-CH2-THF was dissolved in N2-spargeled basic buffer (50 mM Tris-HCl (pH 8.0), 100 mM β-mercaptoethanol) as described by Sah and Varshney, 2015a (6R,S)-5,10-CH=THF was first dissolved in DMSO as a 100 mM stock solution.
(§2) Because FoID is a bifunctional enzyme, dehydrogenase and cyclohydrolase activities were determined for FoID enzyme kinetics, respectively. The dehydrogenase activity of FoID was assayed for its substrate 5,10-CH2-THF and cofactor NADP+ (in the case of MTHFD2, NAD+ was used as cofactor) based on monitoring the formation of 5,10-CH=THF while the cyclohydrolase activity of FoID was determined for its substrate 5,10-CH=THF by monitoring the hydrolysis of 5,10-CH2-THF. The enzyme kinetics for the dehydrogenase activity of all FoIDs except hsMTHFD1_DC were determined at 30° C. in 50 mM Tris-HCl (pH 7.5), 30 mM β-mercaptoethanol. The hsMTHFD1_DC dehydrogenase activity was measured in 25 mM MOPS (pH 7.3), 30 mM β-mercaptoethanol at 30° C. To measure the enzyme kinetics constants for 5,10-CH2-THF, for example in the case of ecFoID, the NADP concentration was fixed at 1 mM and the concentration of 5,10-CH2-THF varied from 5 μM to 1,500 μM (R-isomer). Similarly, to measure the kinetic constants of ecFoID for NADP+, the concentration of 5,10-CH2-THF (R-isomer) was fixed at 1 mM and the concentration of NADP+ varied from 10 μM to 1,500 μM. For different FoIDs, the varied concentration range of substrates could be different. The 50 μL reactions of dehydrogenase assays were initiated by adding appropriate amounts enzyme (4 nM ecFoID, 4 nM spFoID, 15 nM hsMTHFD1_DC, 20 nM hsMTHFD2, 20 nM G8S, 20 nM Q98H, 10 nM K54N, 200 nM ΔK54R55 in the corresponding assays) and terminated with 50 μL 1 M HCl after 2 min incubation at 30° C. To monitor the formation of 5,10-CH=THF, the absorbance of the reaction mixture was monitored at 350 nm in micro UV cuvettes (BRAND, Essex, Connecticut, USA). The concentration of 5,10-CH=THF produced in the reaction was determined using an extinction co-efficient of 0.0249 μM-1 cm-1. Cyclohydrolase activity for each FoID was assayed in the same buffer as dehydrogenase activity at 30° C. but for 30 s. The concentration of FoID used in each assay was 5 nM of ecFoID, spFoID and hsMTHFD1_DC, respectively, and 2 nM of hsMTHFD2. The consumption of 5,10-CH=THF was measured by recording the absorbance of the reactions at 355 nm using the TECAN Infinite 200 PRO equipped with a monochromator. To measure the enzyme kinetic constants, different concentrations of 5,10-CH=THF (varied from […]) were used in […] reaction mixtures. The inhibition constants (Ki) of carolacton on FoID were determined by measuring the apparent Km values when adding certain amounts of carolacton to the enzyme reactions. For ecFoID, 10 nM carolacton was added in the dehydrogenase assay and 50 nM carolacton was used in the cyclohydrolase assay. For spFoID, 25 nM carolacton was added in both dehydrogenase assay and cyclohydrolase assay. For hsMTHFD1_DC, 30 nM carolacton was added in the dehydrogenase assay and 10 nM in the cyclohydrolase assay. […] To compare the inhibition effects of carolacton between the different FoIDs, the half maximal inhibitory concentration (IC50) of carolacton on the same amount of enzyme was determined for FoIDs involved in this study. The enzyme concentration used to determine dehydrogenase activity IC50 was 10 nM, and the enzyme used for cyclohydrolase IC50 measurements was 5 nM. All enzyme kinetics measurements were performed as independent triplicates. […]

ecFoID G8S = molecular target: T2, ecFoID G8S (Escherichia coli, UniProt P24186, G8S); assay: FoID dehydrogenase (DH) enzyme assay; assay type: biochemical, E. coli
T2 construct: made in house; host or cells: E. coli BL21 (DE3)
Experimental: as §1, §2

ecFoID K54N = molecular target: T3, ecFoID K54N (Escherichia coli, UniProt P24186, K54N); assay: FoID dehydrogenase (DH) enzyme assay; assay type: biochemical, E. coli
T3 construct: made in house; host or cells: E. coli BL21 (DE3)
Experimental: as §1, §2

ecFoID Q98H = molecular target: T4, ecFoID Q98H (Escherichia coli, UniProt P24186, Q98H); assay: FoID dehydrogenase (DH) enzyme assay; assay type: biochemical, E. coli
T4 construct: made in house; host or cells: E. coli BL21 (DE3)
Experimental: as §1, §2

ecFoID ΔK54R55 = molecular target: T5, ecFoID ΔK54R55 (Escherichia coli, UniProt P24186, DEL54-55); assay: FoID dehydrogenase (DH) enzyme assay; assay type: biochemical, E. coli
T5 construct: made in house; host or cells: E. coli BL21 (DE3)
Experimental: as §1, §2

ecFoID [2] = molecular target: T1, ecFoID; assay: FoID cyclohydrolase (CYH) enzyme assay; assay type: biochemical, E. coli
Experimental: as §1
Because FoID is a bifunctional enzyme, dehydrogenase and cyclohydrolase activities were determined for FoID enzyme kinetics, respectively. The dehydrogenase activity of FoID was assayed for its substrate 5,10-CH2-THF and cofactor NADP+ (in the case of MTHFD2, NAD+ was used as cofactor) based on monitoring the formation of 5,10-CH=THF while the cyclohydrolase activity of FoID was determined for its substrate 5,10-CH=THF by monitoring the hydrolysis of 5,10-CH2-THF. The enzyme kinetics for the dehydrogenase activity of all FoIDs except hsMTHFD1_DC were determined at 30° C. in 50 mM Tris-HCl (pH 7.5), 30 mM β-mercaptoethanol. […]

spFoID = molecular target: T6, spFoID (Streptococcus pneumoniae serotype 4, UniProt Q97RI9); assay: FoID cyclohydrolase (CYH) enzyme assay; assay type: biochemical, S. pneumoniae
T6 construct: made in house; host or cells: E. coli BL21 (DE3)
Experimental: as §1
Because FoID is a bifunctional enzyme, dehydrogenase and cyclohydrolase activities were determined for FoID enzyme kinetics, respectively. The dehydrogenase activity of FoID was assayed for its substrate 5,10-CH2-THF and cofactor NADP+ (in the case of MTHFD2, NAD+ was used as cofactor) based on monitoring the formation of 5,10-CH=THF while the cyclohydrolase activity of FoID was determined for its substrate 5,10-CH=THF by monitoring the hydrolysis of 5,10-CH2-THF. The enzyme kinetics for the dehydrogenase activity of all FoIDs except hsMTHFD1_DC were determined at 30° C. in 50 mM Tris-HCl (pH 7.5), 30 mM β-mercaptoethanol. The hsMTHFD1_DC dehydrogenase activity was measured in 25 mM MOPS (pH 7.3), 30 mM β-mercaptoethanol at 30° C. […] To monitor the formation of 5,10-CH=THF, the absorbance of the reaction mixture was monitored at 350 nm in micro UV cuvettes (BRAND, Essex, Connecticut, USA). The concentration of 5,10-CH=THF produced in the reaction was determined using an extinction co-efficient of 0.0249 μM-1 cm-1. […] The consumption of 5,10-CH=THF was measured by recording the absorbance of the reactions at 355 nm using the TECAN Infinite 200 PRO equipped with a monochromator. […] The inhibition constants (Ki) of carolacton on FoID were determined by measuring the apparent Km values when adding certain amounts of carolacton to the enzyme reactions. […]

L-929 mouse fibroblasts = assay: Cell proliferation assay with mouse fibroblasts (MTT); assay type: cell-based
Experimental: L-929 mouse fibroblasts from DSMZ cultivated at 37° C. and 10% CO2 in DME medium (high glucose) supplemented with 10% fetal calf serum. Cell culture reagents came from Life Technologies Inc. (GIBCO BRL). […] of serial dilutions of the test compound were given to […] of suspended cells (50,000/mL) in wells of 96-well plates. After 5 days of incubation growth inhibition (IC50) was determined using an MTT assay (Mosman et al., 1983).

T6 sequence (Q97RI9 whole entry): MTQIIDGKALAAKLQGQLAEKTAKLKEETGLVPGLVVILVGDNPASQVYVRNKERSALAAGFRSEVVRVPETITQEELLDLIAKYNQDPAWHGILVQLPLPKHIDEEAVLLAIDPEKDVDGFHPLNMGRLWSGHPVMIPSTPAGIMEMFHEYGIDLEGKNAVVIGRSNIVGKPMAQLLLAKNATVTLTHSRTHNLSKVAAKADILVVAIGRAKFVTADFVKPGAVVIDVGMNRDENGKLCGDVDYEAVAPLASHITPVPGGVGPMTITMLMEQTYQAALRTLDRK

With `CO[C@H](CC(=O)O)[C@@H](C)C(=O)[C@H](C)/C=C(\C)[C@H]1OC(=O)[C@H](O)[C@H](O)/C=C/[C@H](C)CCC[C@@H]1C` [Carolacton, carolacton] the IC50 (ecFoID [1]) was 15.5 nM, the Ki (ecFoID [1]; Ki (5,10-CH2—THF), vs 5,10-CH2-THF) was 21 nM and 21.3 nM and the Ki (ecFoID [1]; Ki (NADP^+), vs cofactor NADP+) was 11 nM and 10.9 nM. The IC50 (ecFoID G8S) was 86.5 nM, the “sensitivity of residual DH activity to carolacton” value (ecFoID K54N) was “completely insensitive” and the IC50 (ecFoID Q98H) was 313 nM. For the same compound, the “sensitivity of residual DH activity to carolacton” value (ecFoID ΔK54R55) was “completely insensitive”, the IC50 (ecFoID [2]) was 49.8 nM and the Ki (ecFoID [2]; Ki (5,10-CH═THF), carolacton inhibition on CYH activity, ecFoID, vs 5,10-CH=THF) was 32 nM and 31.6 nM. The IC50 (spFoID; 5 nM enzyme, read-out: IC50, carolacton inhibition on CYH activity) was 38.1 nM, the IC80 (spFoID; 5 nM enzyme, read-out: IC80, carolacton inhibition on CYH activity) was 101 nM and the Ki (spFoID; vs 5,10-CH=THF, read-out: Ki (5,10-CH═THF), carolacton inhibition on CYH activity) was 38.1 nM. For the same compound, the “inhibition of growth of L929 cells reached” value (L-929 mouse fibroblasts; L929 cells cultivated for 5 days) was ≤ 50% and the IC50 (L-929 mouse fibroblasts; Mus musculus, L929, 120 h, read-out: adapted IC50, inhibition of mouse fibroblast proliferation) was 3.5 µg/mL (≈ 7.47 µM).

Source: US11357752B2, “Carolacton and derivatives thereof for use in the treatment of cell proliferation disorders” (Helmholtz-Zentrum für Infektionsforschung GmbH, priority 2017, dated 2022)
